{"source": "paper PMC7044277", "about": "(Nature Communications, 2020)", "assay_type_in_all_cases": "cell-based", "key": {"320 non-olfactory GPCRs [1]": {"target": "320 non-olfactory GPCRs (Homo sapiens, UniProt O95665)", "sequence (O95665 whole entry)": "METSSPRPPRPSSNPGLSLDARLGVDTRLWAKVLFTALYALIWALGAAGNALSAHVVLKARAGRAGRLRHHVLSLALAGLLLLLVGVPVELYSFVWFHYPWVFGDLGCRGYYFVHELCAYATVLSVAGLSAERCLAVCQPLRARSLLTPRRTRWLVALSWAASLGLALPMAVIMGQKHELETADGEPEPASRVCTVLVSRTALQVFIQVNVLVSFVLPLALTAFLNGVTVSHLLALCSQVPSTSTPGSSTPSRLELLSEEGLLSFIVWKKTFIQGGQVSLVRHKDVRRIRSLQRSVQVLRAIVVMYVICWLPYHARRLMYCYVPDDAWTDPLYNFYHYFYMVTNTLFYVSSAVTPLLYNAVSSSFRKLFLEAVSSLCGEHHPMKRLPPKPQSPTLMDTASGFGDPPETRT", "settings": "receptor NTSR2; replicate values, Fig_4g"}, "320 non-olfactory GPCRs [2]": {"target": "T1, 320 non-olfactory GPCRs (Homo sapiens, UniProt O95838)", "T1 construct": "expressed in transfected cells; host or cells: HTLA cells", "T1 sequence (O95838 whole entry)": "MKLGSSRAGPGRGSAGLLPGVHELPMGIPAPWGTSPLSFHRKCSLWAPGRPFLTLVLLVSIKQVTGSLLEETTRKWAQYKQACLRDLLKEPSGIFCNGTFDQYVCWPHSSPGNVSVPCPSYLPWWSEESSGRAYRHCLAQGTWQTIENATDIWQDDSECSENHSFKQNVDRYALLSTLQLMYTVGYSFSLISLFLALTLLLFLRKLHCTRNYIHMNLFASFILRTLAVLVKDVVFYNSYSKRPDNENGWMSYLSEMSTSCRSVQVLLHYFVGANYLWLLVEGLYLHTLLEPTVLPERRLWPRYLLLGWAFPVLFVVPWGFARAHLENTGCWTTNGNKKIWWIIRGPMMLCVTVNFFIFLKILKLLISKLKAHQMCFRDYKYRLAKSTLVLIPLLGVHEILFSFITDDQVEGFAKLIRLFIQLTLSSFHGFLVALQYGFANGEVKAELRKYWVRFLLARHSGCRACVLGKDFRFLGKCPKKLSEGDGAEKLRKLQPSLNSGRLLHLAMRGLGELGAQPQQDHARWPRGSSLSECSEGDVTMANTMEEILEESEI"}, "320 non-olfactory GPCRs [3]": {"target": "320 non-olfactory GPCRs (Homo sapiens, UniProt P21918)", "sequence (P21918 whole entry)": "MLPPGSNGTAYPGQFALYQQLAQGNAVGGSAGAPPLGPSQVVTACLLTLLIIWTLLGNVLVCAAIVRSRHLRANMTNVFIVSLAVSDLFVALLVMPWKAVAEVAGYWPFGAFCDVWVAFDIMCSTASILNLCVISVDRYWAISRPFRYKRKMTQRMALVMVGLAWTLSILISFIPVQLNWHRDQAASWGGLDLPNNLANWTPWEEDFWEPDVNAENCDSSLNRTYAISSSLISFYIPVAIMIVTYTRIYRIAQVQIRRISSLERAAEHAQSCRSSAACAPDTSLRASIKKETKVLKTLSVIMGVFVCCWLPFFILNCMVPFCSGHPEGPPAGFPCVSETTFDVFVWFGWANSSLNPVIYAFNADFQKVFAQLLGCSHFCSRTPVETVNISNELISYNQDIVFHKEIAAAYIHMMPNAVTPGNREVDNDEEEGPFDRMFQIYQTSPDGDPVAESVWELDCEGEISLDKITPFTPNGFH"}, "320 non-olfactory GPCRs [4]": {"target": "320 non-olfactory GPCRs (Homo sapiens, UniProt P30989)", "sequence (P30989 whole entry)": "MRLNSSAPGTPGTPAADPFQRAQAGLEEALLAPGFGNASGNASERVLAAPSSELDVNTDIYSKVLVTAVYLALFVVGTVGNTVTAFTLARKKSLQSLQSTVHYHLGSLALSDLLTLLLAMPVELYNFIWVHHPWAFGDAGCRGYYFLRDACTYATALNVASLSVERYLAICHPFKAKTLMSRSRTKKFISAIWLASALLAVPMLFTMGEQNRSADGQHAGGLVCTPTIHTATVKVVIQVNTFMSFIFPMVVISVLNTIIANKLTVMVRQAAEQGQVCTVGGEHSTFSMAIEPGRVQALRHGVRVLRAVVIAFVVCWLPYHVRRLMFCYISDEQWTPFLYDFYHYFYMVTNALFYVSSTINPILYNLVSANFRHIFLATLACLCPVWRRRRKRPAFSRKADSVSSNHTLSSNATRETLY", "settings": "receptor NTSR1; replicate values, Fig_4g"}}, "note": "Values joined by “and” are separate entries in the source; they are usually repeats but may differ in a detail not shown here. Identical values can stand only once.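 Wherever Fold of Basal is given: compound tested at 1 µM final concentration.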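 Wherever GPCRome agonism screen response is given: fold over basal response of each receptor without drug.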"}
{"smiles": "CCOc1cccc2cc(C(C)NCC3(O)CCCCC3)oc12", "note": "(stereo not shown) [O4LE6]", "values": [{"measurement": "GPCRome agonism screen response", "setting": "320 non-olfactory GPCRs [1]", "value": "0.5368 and 0.5673 and 0.48 and 0.67"}, {"measurement": "Fold of Basal", "setting": "320 non-olfactory GPCRs [2]", "value": "0.5783 and 0.9087 and 0.8921 and 0.8331"}, {"measurement": "Fold of Basal", "setting": "320 non-olfactory GPCRs [3]", "value": "1.173 and 0.6004 and 0.7155 and 0.7884"}, {"measurement": "GPCRome agonism screen response", "setting": "320 non-olfactory GPCRs [4]", "value": "0.7939 and 0.7425 and 1.49 and 2.039"}]}
